In PMC8775487, “Insights into Asparaginase from Endophytic Fungus Lasiodiplodia theobromae: Purification, Characterization and Antileukemic Activity” (International Journal of Environmental Research and Public …, 2022):

System: T1, purified asparaginase from L. theobromae
T1 construct: native extracellular enzyme purified from culture filtrate of asparagine-induced endophytic fungus (acetone, Q-FF, Sephadex G-100); about 70 kDa on SDS-PAGE
Assay: direct Nesslerization of released ammonia; Lineweaver-Burk and Michaelis-Menten plots
Format: biochemical, Lasiodiplodia theobromae
Settings: asparagine 0-20 mM; standard assay pH 7, 37 °C
Description: direct Nesslerization of released ammonia; Lineweaver-Burk and Michaelis-Menten plots on purified asparaginase from L. theobromae | Michaelis constant Km and maximum velocity Vmax of the purified asparaginase from L. theobromae were […]

NC(=O)C[C@H](N)C(=O)O [asparagine]
Km: 9.37 µM
